Results reported in patent US20020137929A1, “1 - (3-heterocyclylphenyl) isothiourea, -isourea, -guanidine and -amidine herbicidal agents” (Intellectual Property Department, BASF Aktiengesellschaft, priority 1998, published 2002).

Tests used:
[1] = system: TRZAWR (Wheat, Winter, cv Riband); experiment: Postemergence herbicidal evaluation; format: in vivo, Triticum aestivum; conditions: postemergence
How it was run: (§1)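 Young plants, roughly two weeks from seeding, receive the active ingredient as a sprayed dispersion (acetone/water 50/50, 0.5% TWEEN 20) at 40 psi. Doses span about 0.0156 to 0.500 kg/ha. A visual score from 0 to 9 compares treated with control plants four to five weeks on.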

CYPIR (Rice Flatsedge) = experiment: Postemergence weed control under flooded paddy conditions; format: in vivo, Cyperus iria; conditions: postemergence weeds, rated 3 to 4 weeks after treatment
How it was run: (§2)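 Flood-water application, about 0.0313–0.500 kg/ha a.i. in aqueous/acetone 50/50 v/v; water depth 1.5–3 cm throughout. Weeds 3–5 cm, rice 1.5–2.5 leaf. Greenhouse; 0–9 visual rating vs control at 3–4 wk.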

[2] = system: ECHORC (Watergrass (Calif.)); experiment: as above; format: in vivo, Echinochloa oryzoides; conditions: postemergence weeds, rated 3 to 4 weeks after treatment
How it was run: as §2

ECHCG (Barnyardgrass) = experiment: Preemergence herbicidal evaluation; format: in vivo, Echinochloa crus-galli; conditions: rated 4-5 weeks after treatment; for ECHCG rating: preemergence, 0-9 scale
How it was run: (§3)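 Each species is sown separately in potting soil over roughly an inch of soil before any emergence. The soil surface then receives an aqueous acetone spray delivering about 0.0156 to 0.500 kg/ha of compound. After four to five weeks, injury is scored from 0 to 9 relative to a control.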

[3] = system: CHEAL (Lambsquarters, Common); experiment: Preemergence herbicidal evaluation; format: in vivo, Chenopodium album; conditions: rated 4-5 weeks after treatment; for CHEAL rating: preemergence, 0-9 scale
How it was run: as §3

[4] = system: IPOHE (Morningglory, Ivyleaf); experiment: Postemergence herbicidal evaluation; format: in vivo, Ipomoea hederacea; conditions: postemergence
How it was run: as §1

[5] = system: ECHORC (Watergrass (Calif.)); experiment: Preemergence weed control under flooded paddy conditions; format: in vivo, Echinochloa oryzoides; conditions: rated 3-4 weeks after treatment
How it was run: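 Ratings on a 0-9 visual scale cover stand, vigor, malformation, size, chlorosis and overall appearance relative to a control, taken three to four weeks post-treatment. Application was into flood water over freshly sown silt loam at roughly 0.0313 to 0.500 kg/ha.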

SETVI (Foxtail, Green) = experiment: Preemergence herbicidal evaluation; format: in vivo, Setaria viridis; conditions: rated 4-5 weeks after treatment; for SETVI rating: preemergence, 0-9 scale
How it was run: as §3

ABUTH (Velvetleaf) = experiment: Postemergence herbicidal evaluation; format: in vivo, Abutilon theophrasti; conditions: postemergence
How it was run: as §1

MOOVA (Monochoria) = experiment: Preemergence weed control under flooded paddy conditions; format: in vivo, Monochoria vaginalis; conditions: rated 3-4 weeks after treatment
How it was run: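 Silt loam, seeds in top 0.5 cm; flood held 1.5-3 cm; test cpd as acetone/water 50/50 into flood water, ~0.0313-0.500 kg/ha a.i.; greenhouse 3-4 wk; visual 0-9 score vs control.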

ORYSAT (Rice, Tebonnet) = experiment: Preemergence herbicidal evaluation; format: in vivo, Oryza sativa, (L.) Tebonnet; conditions: rated 4-5 weeks after treatment; for ORYSAT rating: preemergence, 0-9 scale
How it was run: as §3

[6] = system: IPOHE (Morningglory, Ivyleaf); experiment: Preemergence herbicidal evaluation; format: in vivo, Ipomoea hederacea; conditions: rated 4-5 weeks after treatment; for IPOHE rating: preemergence, 0-9 scale
How it was run: as §3

[7] = system: TRZAWR (Wheat, Winter, cv Riband); experiment: Preemergence herbicidal evaluation; format: in vivo, Triticum aestivum; conditions: rated 4-5 weeks after treatment; for TRZAWR rating: preemergence, 0-9 scale
How it was run: as §3

SMILES: C=CCN1C(=O)C(CC(=O)NS(=O)(=O)CC)SC1=Nc1cc(-n2c(=O)cc(C(F)(F)F)n(C)c2=O)c(F)cc1Cl (stereo not shown) [Compound 104, 3-Allyl-2-{{2-chloro-5-[3,6-dihydro-3-methyl-2,6-dioxo-4-(trifluoromethyl)-1(2H)-pyrimidinyl]-4-fluorophenyl}imino}-N-(ethylsulfonyl)-4-oxo-5-thiazolidineacetamide]
- Herbicidal rating TRZAWR ([1]; rate 0.0156 kg/ha): 3.0
- Herbicidal rating TRZAWR ([1]; rate 0.0313 kg/ha): 3.0
- Herbicidal rating TRZAWR ([1]; rate 0.0625 kg/ha): 4.0
- Herbicidal rating TRZAWR ([1]; rate 0.1250 kg/ha): 4.0
- Herbicidal rating CYPIR (CYPIR (Rice Flatsedge); Rate 0.0313 kg/ha): 5.0
- Herbicidal rating CYPIR (CYPIR (Rice Flatsedge); Rate 0.0625 kg/ha): 9.0
- Herbicidal rating CYPIR (CYPIR (Rice Flatsedge); Rate 0.1250 kg/ha): 9.0
- Herbicidal rating CYPIR (CYPIR (Rice Flatsedge); Rate 0.2500 kg/ha): 9.0
- Herbicidal rating ECHORC ([2]; Rate 0.0313 kg/ha): 4.0
- Herbicidal rating ECHORC ([2]; Rate 0.0625 kg/ha): 5.0
- Herbicidal rating ECHORC ([2]; Rate 0.1250 kg/ha): 6.0
- Herbicidal rating ECHORC ([2]; Rate 0.2500 kg/ha): 6.0
- ECHCG rating (ECHCG (Barnyardgrass); 0.0625 kg/ha): 0.0
- ECHCG rating (ECHCG (Barnyardgrass); 0.1250 kg/ha): 0.0
- ECHCG rating (ECHCG (Barnyardgrass); 0.2500 kg/ha): 1.0
- ECHCG rating (ECHCG (Barnyardgrass); 0.5000 kg/ha): 1.0
- CHEAL rating ([3]; 0.0625 kg/ha): 0.0
- CHEAL rating ([3]; 0.1250 kg/ha): 9.0
- CHEAL rating ([3]; 0.2500 kg/ha): 9.0
- CHEAL rating ([3]; 0.5000 kg/ha): 9.0
- Herbicidal rating IPOHE ([4]; rate 0.0156 kg/ha): 9.0
- Herbicidal rating IPOHE ([4]; rate 0.0313 kg/ha): 9.0
- Herbicidal rating IPOHE ([4]; rate 0.0625 kg/ha): 9.0
- Herbicidal rating IPOHE ([4]; rate 0.1250 kg/ha): 9.0
- ECHORC herbicidal effect rating ([5]; 0.0313 kg/ha): 4.0
- ECHORC herbicidal effect rating ([5]; 0.0625 kg/ha): 5.0
- ECHORC herbicidal effect rating ([5]; 0.1250 kg/ha): 6.0
- ECHORC herbicidal effect rating ([5]; 0.2500 kg/ha): 6.0
- SETVI rating (SETVI (Foxtail, Green); 0.0625 kg/ha): 0.0
- SETVI rating (SETVI (Foxtail, Green); 0.1250 kg/ha): 0.0
- SETVI rating (SETVI (Foxtail, Green); 0.2500 kg/ha): 0.0
- SETVI rating (SETVI (Foxtail, Green); 0.5000 kg/ha): 6.0
- Herbicidal rating ABUTH (ABUTH (Velvetleaf); rate 0.0156 kg/ha): 7.0
- Herbicidal rating ABUTH (ABUTH (Velvetleaf); rate 0.0313 kg/ha): 7.0
- Herbicidal rating ABUTH (ABUTH (Velvetleaf); rate 0.0625 kg/ha): 9.0
- Herbicidal rating ABUTH (ABUTH (Velvetleaf); rate 0.1250 kg/ha): 9.0
- MOOVA herbicidal effect rating (MOOVA (Monochoria); 0.0313 kg/ha): 7.0
- MOOVA herbicidal effect rating (MOOVA (Monochoria); 0.0625 kg/ha): 9.0
- MOOVA herbicidal effect rating (MOOVA (Monochoria); 0.1250 kg/ha): 9.0
- MOOVA herbicidal effect rating (MOOVA (Monochoria); 0.2500 kg/ha): 9.0
- ORYSAT rating (ORYSAT (Rice, Tebonnet); 0.0625 kg/ha): 0.0
- ORYSAT rating (ORYSAT (Rice, Tebonnet); 0.1250 kg/ha): 0.0
- ORYSAT rating (ORYSAT (Rice, Tebonnet); 0.2500 kg/ha): 0.0
- ORYSAT rating (ORYSAT (Rice, Tebonnet); 0.5000 kg/ha): 0.0
- IPOHE rating ([6]; 0.0625 kg/ha): 0.0
- IPOHE rating ([6]; 0.1250 kg/ha): 0.0
- IPOHE rating ([6]; 0.2500 kg/ha): 3.0
- IPOHE rating ([6]; 0.5000 kg/ha): 9.0
- TRZAWR rating ([7]; 0.0625 kg/ha): 0.0
- TRZAWR rating ([7]; 0.1250 kg/ha): 0.0
- TRZAWR rating ([7]; 0.2500 kg/ha): 0.0
- TRZAWR rating ([7]; 0.5000 kg/ha): 1.0

SMILES: CC(C)S(=O)(=O)NC(=O)CC1SC(=Nc2cc(-n3c(=O)cc(C(F)(F)F)n(C)c3=O)c(F)cc2Cl)N(C)C1=O (stereo not shown) [Compound 119, 2-{{2-Chloro-5-[3,6-dihydro-3-methyl-2,6-dioxo-4-(trifluoromethyl)-1(2H)-pyrimidinyl]-4-fluorophenyl}imino}-N-(isopropylsulfonyl)-3-methyl-4-oxo-5-thiazolidineacetamide]
- Herbicidal rating TRZAWR ([1]; rate 0.0156 kg/ha): 2.5
- Herbicidal rating TRZAWR ([1]; rate 0.0313 kg/ha): 3.5
- Herbicidal rating TRZAWR ([1]; rate 0.0625 kg/ha): 3.5
- Herbicidal rating CYPIR (CYPIR (Rice Flatsedge); Rate 0.0313 kg/ha): 2.0
- Herbicidal rating CYPIR (CYPIR (Rice Flatsedge); Rate 0.1250 kg/ha): 6.0
- Herbicidal rating CYPIR (CYPIR (Rice Flatsedge); Rate 0.2500 kg/ha): 9.0
- Herbicidal rating ECHORC ([2]; Rate 0.0313 kg/ha): 0.0
- Herbicidal rating ECHORC ([2]; Rate 0.0625 kg/ha): 2.0
- Herbicidal rating ECHORC ([2]; Rate 0.1250 kg/ha): 4.0
- Herbicidal rating ECHORC ([2]; Rate 0.2500 kg/ha): 4.0
- Preemergence herbicidal rating ECHCG (ECHCG (Barnyardgrass); rate 0.0156 kg/ha): 0.0
- Preemergence herbicidal rating ECHCG (ECHCG (Barnyardgrass); rate 0.0313 kg/ha): 0.0
- Preemergence herbicidal rating ECHCG (ECHCG (Barnyardgrass); rate 0.0625 kg/ha): 0.0
- Preemergence herbicidal rating ECHCG (ECHCG (Barnyardgrass); rate 0.1250 kg/ha): 2.0
- Preemergence herbicidal rating ECHCG (ECHCG (Barnyardgrass); rate 0.2500 kg/ha): 2.0
- Preemergence herbicidal rating CHEAL ([3]; rate 0.0156 kg/ha): 9.0
- Preemergence herbicidal rating CHEAL ([3]; rate 0.0313 kg/ha): 9.0
- Preemergence herbicidal rating CHEAL ([3]; rate 0.0625 kg/ha): 9.0
- Preemergence herbicidal rating CHEAL ([3]; rate 0.1250 kg/ha): 9.0
- Preemergence herbicidal rating CHEAL ([3]; rate 0.2500 kg/ha): 9.0
- Herbicidal rating IPOHE ([4]; rate 0.0156 kg/ha): 9.0
- Herbicidal rating IPOHE ([4]; rate 0.0313 kg/ha): 9.0
- Herbicidal rating IPOHE ([4]; rate 0.0625 kg/ha): 9.0
- herbicidal effect rating, ECHORC ([5]; 0.0313 kg/ha): 8.0
- herbicidal effect rating, ECHORC ([5]; 0.0625 kg/ha): 9.0
- herbicidal effect rating, ECHORC ([5]; 0.1250 kg/ha): 9.0
- herbicidal effect rating, ECHORC ([5]; 0.2500 kg/ha): 9.0
- Preemergence herbicidal rating SETVI (SETVI (Foxtail, Green); rate 0.0156 kg/ha): 0.0
- Preemergence herbicidal rating SETVI (SETVI (Foxtail, Green); rate 0.0313 kg/ha): 0.0
- Preemergence herbicidal rating SETVI (SETVI (Foxtail, Green); rate 0.0625 kg/ha): 2.0
- Preemergence herbicidal rating SETVI (SETVI (Foxtail, Green); rate 0.1250 kg/ha): 7.0
- Preemergence herbicidal rating SETVI (SETVI (Foxtail, Green); rate 0.2500 kg/ha): 7.0
- Herbicidal rating ABUTH (ABUTH (Velvetleaf); rate 0.0156 kg/ha): 9.0
- Herbicidal rating ABUTH (ABUTH (Velvetleaf); rate 0.0313 kg/ha): 9.0
- Herbicidal rating ABUTH (ABUTH (Velvetleaf); rate 0.0625 kg/ha): 9.0
- herbicidal effect rating, MOOVA (MOOVA (Monochoria); 0.0313 kg/ha): 7.5
- herbicidal effect rating, MOOVA (MOOVA (Monochoria); 0.0625 kg/ha): 8.0
- herbicidal effect rating, MOOVA (MOOVA (Monochoria); 0.1250 kg/ha): 9.0
- herbicidal effect rating, MOOVA (MOOVA (Monochoria); 0.2500 kg/ha): 9.0
- Preemergence herbicidal rating ORYSAT (ORYSAT (Rice, Tebonnet); rate 0.0156 kg/ha): 0.0
- Preemergence herbicidal rating ORYSAT (ORYSAT (Rice, Tebonnet); rate 0.0313 kg/ha): 0.0
- Preemergence herbicidal rating ORYSAT (ORYSAT (Rice, Tebonnet); rate 0.0625 kg/ha): 0.0
- Preemergence herbicidal rating ORYSAT (ORYSAT (Rice, Tebonnet); rate 0.1250 kg/ha): 0.0
- Preemergence herbicidal rating ORYSAT (ORYSAT (Rice, Tebonnet); rate 0.2500 kg/ha): 0.0
- Preemergence herbicidal rating IPOHE ([6]; rate 0.0156 kg/ha): 0.0
- Preemergence herbicidal rating IPOHE ([6]; rate 0.0313 kg/ha): 0.0
- Preemergence herbicidal rating IPOHE ([6]; rate 0.0625 kg/ha): 0.0
- Preemergence herbicidal rating IPOHE ([6]; rate 0.1250 kg/ha): 9.0
- Preemergence herbicidal rating IPOHE ([6]; rate 0.2500 kg/ha): 9.0
- Preemergence herbicidal rating TRZAWR ([7]; rate 0.0156 kg/ha): 0.0
- Preemergence herbicidal rating TRZAWR ([7]; rate 0.0313 kg/ha): 0.0
- Preemergence herbicidal rating TRZAWR ([7]; rate 0.0625 kg/ha): 0.0
- Preemergence herbicidal rating TRZAWR ([7]; rate 0.1250 kg/ha): 0.0
- Preemergence herbicidal rating TRZAWR ([7]; rate 0.2500 kg/ha): 0.0
